Holding throughout (experiment): biochemical
Experiment [1] has as its target T1, SIK3 (Homo sapiens, UniProt Q9Y2K2).
T1 construct: purchased SignalChem S12-11G-100
Conditions: ADP-Glo SIK kinase assay. How it is done:
(§1) The ADP-Glo™ kinase assay is a luminescent technology assay which measures the ADP formed from a kinase reaction. […] In a second step the kinase reactions are terminated and all the remaining ATP is depleted. In a final step the ADP is converted into ATP and this newly synthesized ATP is measured by using a luciferase/luciferin reaction. The generated light is measured using an Envision plate reader, wherein the luminescent signal obtained positively correlates with the kinase activity.
(§2) 1% DMSO and 10 μM staurosporine final concentrations are used as negative and positive controls.
(§3) 2 μL enzyme-substrate mixture is added to the assay plates.
(§4) The reaction is started by adding 2 μL diluted ATP on the assay plates. Plates are centrifuged for a few seconds at 1000 rpm and gently shaken for 2 min followed by an incubation at RT for 120 min.
(§5) The reactions are stopped and the unconsumed ATP is depleted by adding 5 μL ADP-Glo Reagent (Promega, Cat #V912B) to the reaction. The plates are centrifuged for a few seconds at 1000 rpm and incubated at RT for 40 min (ATP depletion).
(§6) The ADP is converted to ATP and luciferase and luciferin is introduced to detect ATP by adding 10 μL Kinase Detection Reagent (Promega, Cat #V913B+V914B) to the reaction. The plates are centrifuged for a few seconds at 1000 rpm and incubated at RT for 30 min (ADP detection).
(§7) Luminescence is measured on an Envision plate reader (PerkinElmer Inc.).
On the technique in general: ADP-Glo first removes unused ATP, then detects ADP through luciferase.

For experiment [2], the target named is T2, SIK2 (Homo sapiens, UniProt Q9H0K1).
T2 construct: purchased ThermoFisher Scientific PV4792
Particulars: ADP-Glo SIK kinase assay. Here is the method:
as §1, §2, §3, §4, §5, §6, §7

In experiment [3] the target is T3, SIK1 (Homo sapiens, UniProt P57059).
T3 construct: purchased Carna Biosciences 02-131
Particulars: ADP-Glo SIK kinase assay. Here is the method: as §1, §2, §3, §4, §5, §6, §7

Experiment [4] deals with T1, SIK3. An outline of the steps: (§8)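 Radiometric assay: SIK1, SIK2 or SIK3 phosphorylates AMARA peptide using unlabelled plus [^33P]-γ-ATP, reaction started by ATP addition. Stopped with 150 mM phosphoric acid, filter-harvested and washed; incorporated ^33P counted by scintillation. Controls: 1% DMSO and 10 μM staurosporine final.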
In experiment [5] the target is T2, SIK2. Particulars: 33P radioactive SIK kinase assay, AMARA peptide, 10 μM ATP. The gist of the method:
as §8

Experiment [6] concerns the target T3, SIK1. Conditions: 33P radioactive SIK kinase assay, AMARA peptide, 10 μM ATP; read-out: SIK1 IC50. An outline of the steps:
as §8

Each structure is given as a SMILES string. Like-named read-outs stand apart in the source and are kept apart here.

T3 sequence (P57059 whole entry): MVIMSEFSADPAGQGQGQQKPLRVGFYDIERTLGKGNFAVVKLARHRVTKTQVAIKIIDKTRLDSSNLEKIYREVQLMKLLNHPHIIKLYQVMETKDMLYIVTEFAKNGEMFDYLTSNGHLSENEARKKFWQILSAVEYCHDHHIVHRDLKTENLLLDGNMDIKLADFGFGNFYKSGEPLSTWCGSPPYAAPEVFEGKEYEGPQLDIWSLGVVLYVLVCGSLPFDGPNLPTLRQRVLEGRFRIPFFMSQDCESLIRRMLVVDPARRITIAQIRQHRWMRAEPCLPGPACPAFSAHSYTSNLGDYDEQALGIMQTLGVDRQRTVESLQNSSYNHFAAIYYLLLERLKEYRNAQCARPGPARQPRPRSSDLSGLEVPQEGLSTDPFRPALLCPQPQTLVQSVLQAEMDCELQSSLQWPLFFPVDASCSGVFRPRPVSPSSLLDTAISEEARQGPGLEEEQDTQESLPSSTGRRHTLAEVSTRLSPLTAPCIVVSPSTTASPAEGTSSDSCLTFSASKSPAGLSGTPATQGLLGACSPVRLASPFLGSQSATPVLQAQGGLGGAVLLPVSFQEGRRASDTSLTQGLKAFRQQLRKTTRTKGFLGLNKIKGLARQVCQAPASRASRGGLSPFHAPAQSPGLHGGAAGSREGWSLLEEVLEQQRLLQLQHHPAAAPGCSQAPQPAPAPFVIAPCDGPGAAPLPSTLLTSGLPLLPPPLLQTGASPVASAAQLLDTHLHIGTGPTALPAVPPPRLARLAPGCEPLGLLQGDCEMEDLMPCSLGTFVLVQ
T2 sequence (Q9H0K1 whole entry): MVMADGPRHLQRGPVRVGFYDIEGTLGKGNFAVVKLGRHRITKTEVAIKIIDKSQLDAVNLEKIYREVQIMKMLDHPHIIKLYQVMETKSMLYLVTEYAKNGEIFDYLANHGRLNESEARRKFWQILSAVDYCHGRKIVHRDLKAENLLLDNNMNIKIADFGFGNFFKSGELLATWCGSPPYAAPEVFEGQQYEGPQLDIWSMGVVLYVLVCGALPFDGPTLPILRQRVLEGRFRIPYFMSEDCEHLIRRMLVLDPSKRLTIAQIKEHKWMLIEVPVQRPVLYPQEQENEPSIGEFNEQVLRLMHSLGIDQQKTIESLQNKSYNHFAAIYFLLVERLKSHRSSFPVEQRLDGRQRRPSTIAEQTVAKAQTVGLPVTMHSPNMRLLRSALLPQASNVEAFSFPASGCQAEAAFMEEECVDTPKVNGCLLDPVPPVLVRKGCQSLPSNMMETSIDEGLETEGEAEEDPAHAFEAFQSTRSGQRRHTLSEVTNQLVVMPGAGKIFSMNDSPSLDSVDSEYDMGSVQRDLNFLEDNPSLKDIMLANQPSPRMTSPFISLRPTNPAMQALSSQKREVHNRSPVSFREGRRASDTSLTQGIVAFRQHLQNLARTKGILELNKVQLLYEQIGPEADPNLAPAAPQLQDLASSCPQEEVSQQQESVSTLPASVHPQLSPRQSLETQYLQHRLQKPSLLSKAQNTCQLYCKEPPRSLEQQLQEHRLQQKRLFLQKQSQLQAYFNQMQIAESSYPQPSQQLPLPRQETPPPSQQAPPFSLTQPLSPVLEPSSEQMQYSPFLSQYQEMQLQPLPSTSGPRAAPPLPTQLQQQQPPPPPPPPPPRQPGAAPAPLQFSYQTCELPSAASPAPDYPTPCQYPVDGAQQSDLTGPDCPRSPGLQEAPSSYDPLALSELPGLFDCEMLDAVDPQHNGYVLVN
T1 sequence (Q9Y2K2 whole entry): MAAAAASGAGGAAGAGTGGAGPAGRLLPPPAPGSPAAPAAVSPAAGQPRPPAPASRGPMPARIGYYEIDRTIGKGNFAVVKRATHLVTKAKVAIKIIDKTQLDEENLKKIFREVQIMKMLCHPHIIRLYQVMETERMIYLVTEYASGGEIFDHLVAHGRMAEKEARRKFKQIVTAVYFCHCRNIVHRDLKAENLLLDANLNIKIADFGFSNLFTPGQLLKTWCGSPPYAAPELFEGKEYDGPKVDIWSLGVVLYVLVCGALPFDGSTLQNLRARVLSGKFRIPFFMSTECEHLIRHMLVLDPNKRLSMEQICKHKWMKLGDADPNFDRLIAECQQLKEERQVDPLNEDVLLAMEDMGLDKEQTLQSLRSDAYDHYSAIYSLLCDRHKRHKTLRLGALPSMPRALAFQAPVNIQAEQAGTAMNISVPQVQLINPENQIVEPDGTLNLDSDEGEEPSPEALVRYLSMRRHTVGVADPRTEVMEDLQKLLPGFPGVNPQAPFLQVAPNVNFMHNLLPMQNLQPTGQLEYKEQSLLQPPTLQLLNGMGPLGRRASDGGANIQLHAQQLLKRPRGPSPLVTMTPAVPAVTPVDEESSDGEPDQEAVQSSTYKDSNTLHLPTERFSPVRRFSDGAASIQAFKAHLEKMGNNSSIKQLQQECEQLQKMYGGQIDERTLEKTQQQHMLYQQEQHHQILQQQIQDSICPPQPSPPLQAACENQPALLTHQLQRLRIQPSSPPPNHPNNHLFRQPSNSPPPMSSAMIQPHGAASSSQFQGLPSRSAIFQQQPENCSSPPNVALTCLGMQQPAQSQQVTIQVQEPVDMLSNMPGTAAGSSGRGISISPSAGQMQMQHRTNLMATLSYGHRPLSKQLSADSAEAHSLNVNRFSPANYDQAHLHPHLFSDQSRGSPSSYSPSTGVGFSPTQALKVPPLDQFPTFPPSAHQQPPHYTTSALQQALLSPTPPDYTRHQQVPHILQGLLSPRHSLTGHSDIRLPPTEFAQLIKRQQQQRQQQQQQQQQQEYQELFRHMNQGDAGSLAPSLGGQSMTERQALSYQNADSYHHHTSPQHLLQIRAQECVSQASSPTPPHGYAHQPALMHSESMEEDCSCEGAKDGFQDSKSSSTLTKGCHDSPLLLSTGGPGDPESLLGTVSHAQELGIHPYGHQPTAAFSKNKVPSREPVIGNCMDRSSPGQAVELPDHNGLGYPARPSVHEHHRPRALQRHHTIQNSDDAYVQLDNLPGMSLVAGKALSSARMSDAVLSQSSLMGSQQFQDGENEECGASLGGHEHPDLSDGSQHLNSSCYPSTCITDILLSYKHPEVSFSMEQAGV

Take `COc1cc(-c2cnc3cc(-c4ccc(C#N)nn4)ccn23)cc(OC(F)F)c1C(=O)NC1CC1` [compound 282, 4-[7-(6-cyanopyridazin-3-yl)imidazo[1,2-a]pyridin-3-yl]-N-cyclopropyl-2-(difluoromethoxy)-6-methoxy-benzamide]: the IC50 at SIK3 [1], on SIK2 [2] and at SIK1 [3] was 0.01 to 10 nM in each case.
As to `COc1cc(-c2cnc3cc(-c4cnccc4C#N)ccn23)cc(OC)c1C(=O)NCC(F)(F)F` [Cpd 258], the IC50 (usually the concentration that inhibits the measured activity by half) was 10 to 100 nM against SIK3 [1]; > 500 nM against SIK2 [2]; > 500 nM against SIK1 [3]; 100 to 500 nM on SIK3 [4]; > 500 nM on SIK2 [5]; > 500 nM on SIK1 [6].
Consider `Cn1cc(-c2ccn3c(-c4cc(F)c(C(=O)NCC(F)(F)F)c(F)c4)cnc3c2)cn1` [compound 271, 2,6-difluoro-4-[7-(1-methylpyrazol-4-yl)imidazo[1,2-a]pyridin-3-yl]-N-(2,2,2-trifluoroethyl)benzamide], for which the IC50 fell in the range of 10 to 100 nM at SIK3 [1], 0.01 to 10 nM against SIK2 [2] and 100 to 500 nM at SIK1 [3].
The like results for `COc1cc(-c2cnc3cc(-c4cccnc4C#N)ccn23)cc(OC)c1C(=O)NCC(F)(F)F` [compound 268, 4-[7-(2-cyano-3-pyridyl)imidazo[1,2-a]pyridin-3-yl]-2,6-dimethoxy-N-(2,2,2-trifluoroethyl)benzamide] were, in that order, 10 to 100 nM, 100 to 500 nM and > 500 nM.
The like results for `CCOC(=O)Cn1cc(-c2ccn3c(-c4cc(OC)c(C(=O)NC5CC5)c(OC(F)F)c4)cnc3c2)cn1` [Cpd 284, ethyl 2-[4-[3-[4-(cyclopropyl-carbamoyl)-3-(difluoromethoxy)-5-methoxy-phenyl]imidazo[1,2-a]pyridin-7-yl]pyrazol-1-yl]acetate] were, in that order, 0.01 to 10 nM, 0.01 to 10 nM and 0.01 to 10 nM.
As for `CCN1Cc2cc(-n3cnc4cc(-c5cnn(C)c5)ccc43)cc(F)c2C1=O` [Cpd 175, 2-ethyl-7-fluoro-5-[5-(1-methylpyrazol-4-yl)benzimidazol-1-yl]isoindolin-1-one], the IC50 against SIK3 [1] was 100 to 500 nM; against SIK2 [2] it was 100 to 500 nM; on SIK1 [3], > 500 nM; against SIK3 [4], 100 to 500 nM; on SIK2 [5], 100 to 500 nM; at SIK1 [6], > 500 nM.
Turning to `CCN1Cc2cc(-c3cnc4cc(-c5cnn(C)c5)ccn34)cc(NCCO)c2C1=O` [compound 201, 2-ethyl-7-(2-hydroxyethylainino)-5-[7-(1-methylpyrazol-4-yl)imidazo[1,2-a]pyridin-3-yl]isoindolin-1-one], the half-maximal inhibitory concentration (IC50) on SIK3 [1] was 10 to 100 nM; on SIK2 [2] it was 10 to 100 nM; against SIK1 [3], 100 to 500 nM; against SIK3 [4], 100 to 500 nM; at SIK2 [5] it was 10 to 100 nM; at SIK1 [6], > 500 nM.
As to `CCOC(=O)C(C)Oc1cn2c(-c3cc(OC)c(C(=O)NC4CC4)c(OC(F)F)c3)cnc2cc1-c1cnn(C)c1` (stereo not drawn) [Cpd 302, ethyl 2-[3-[4-(cyclopropyl-carbamoyl)-3-(difluoromethoxy)-5-methoxy-phenyl]-7-(1-methylpyrazol-4-yl)imidazo[1,2-a]pyridin-6-yl]oxypropanoate], the IC50 on SIK3 [1], against SIK2 [2] and at SIK1 [3] was 10 to 100 nM each time.
Regarding `COc1cc(-c2cnc3cc(-c4cnn(C)c4)c(OCc4ccccc4)cn23)cc(OC(F)F)c1C(=O)NC1CC1` [Cpd 300, 4-[6-benzyloxy-7-(1-methylpyrazol-4-yl)imidazo[1,2-a]pyridin-3-yl]-N-cyclopropyl-2-(difluoromethoxy)-6-methoxy-benzamide], the values for the IC50 against SIK3 [1], against SIK2 [2] and at SIK1 [3] were 10 to 100 nM, 0.01 to 10 nM and 10 to 100 nM, respectively.
Regarding `COc1cc(-c2cnc3cc(-c4cnn(C)c4)ccn23)cc(NC(C)C)c1C(=O)NC1CC1` [compound 277, N-cyclopropyl-2-(isopropylamino)-6-methoxy-4-[7-(1-methylpyrazol-4-yl)imidazo[1,2-a]pyridin-3-yl]benzamide], the half-inhibitory concentration (IC50) against SIK3 [1], against SIK2 [2] and at SIK1 [3] was 0.01 to 10 nM each time.
As to `COc1cc(-c2cnc3cc(-c4ccc(N(C)C)nn4)ccn23)cc(OC(F)F)c1C(=O)NC1CC1` [compound 283, N-cyclopropyl-2-(difluoromethoxy)-4-[7-[6-(dimethylamino)pyridazin-3-yl]imidazo[1,2-a]pyridin-3-yl]-6-methoxy-benzamide], the half-inhibitory concentration (IC50) at SIK3 [1], on SIK2 [2] and on SIK1 [3] was 0.01 to 10 nM throughout.
Consider `COc1cc(-c2cnc3cc(-c4cnccc4C(N)=O)ccn23)cc(OC)c1C(=O)NCC(F)(F)F` [Cpd 259, 3-[3-[3,5-dimethoxy-4-(2,2,2-trifluoroethyl-carbamoyl)phenyl]imidazo[1,2-a]pyridin-7-yl]pyridine-4-carboxamide], for which the IC50 is 10 to 100 nM on SIK3 [1]; > 500 nM at SIK2 [2]; > 500 nM against SIK1 [3]; 100 to 500 nM on SIK3 [4]; > 500 nM at SIK2 [5]; > 500 nM at SIK1 [6].
As for `[2H]C([2H])([2H])Oc1cc(-c2cnc3cc(-c4cnn(C)c4)ccn23)cc(OC([2H])([2H])[2H])c1C(=O)NCC(F)(F)F` [Cpd 266, 4-[7-(1-methylpyrazol-4-yl)imidazo[1,2-a]pyridin-3-yl]-2,6-bis(trideuterio-methoxy)-N-(2,2,2-trifluoroethyl)benzamide], the IC50 against SIK3 [1], against SIK2 [2] and against SIK1 [3] was 0.01 to 10 nM throughout.
On to `COc1cc(-c2cnc3cc(-c4ccc(C(F)(F)F)nn4)ccn23)cc(OC(F)F)c1C(=O)NC1CC1` [compound 281, N-cyclopropyl-2-(difluoromethoxy)-6-methoxy-4-[7-[6-(trifluoromethyl)pyridazin-3-yl]imidazo[1,2-a]pyridin-3-yl]benzamide], for which the IC50 on SIK3 [1] is 0.01 to 10 nM; against SIK2 [2], 0.01 to 10 nM; against SIK1 [3] it was 10 to 100 nM.
As to `COc1cc(-c2cnc3cc(-c4cnn(C5CN(C(=O)OC(C)(C)C)C5)c4)ccn23)cc(OC)c1C(=O)NCC(F)(F)F` [compound 260, tert-butyl 3-[4-[3-[3,5-dimethoxy-4-(2,2,2-trifluoroethyl-carbamoyl)phenyl]imidazo[1,2-a]pyridin-7-yl]pyrazol-1-yl]azetidine-1-carboxylate], the IC50 against SIK3 [1], against SIK2 [2], against SIK1 [3], against SIK3 [4], at SIK2 [5] and at SIK1 [6] was 0.01 to 10 nM throughout.
For `COc1cc(-c2cnc3cc(-c4cnn(C(C)(C)C(=O)O)c4)ccn23)cc(OC)c1C(=O)NCC(F)(F)F` [Cpd 304, 2-[4-[3-[3,5-dimethoxy-4-(2,2,2-trifluoroethyl-carbamoyl)phenyl]imidazo[1,2-a]pyridin-7-yl]pyrazol-1-yl]-2-methyl-propanoic acid], the values for the IC50 against SIK3 [1], on SIK2 [2] and on SIK1 [3] were 0.01 to 10 nM, 10 to 100 nM and 0.01 to 10 nM, respectively.
Regarding `COc1cc(-c2cnc3cc(-c4cnn(C)c4)c(OC(C)C(=O)O)cn23)cc(OC(F)F)c1C(=O)NC1CC1` (stereo not drawn) [Cpd 303, 2-[3-[4-(cyclopropyl-carbamoyl)-3-(difluoromethoxy)-5-methoxy-phenyl]-7-(1-methylpyrazol-4-yl)imidazo[1,2-a]pyridin-6-yl]oxypropanoic acid], the IC50 at SIK3 [1], against SIK2 [2] and against SIK1 [3] was 10 to 100 nM in each case.
For the compound `COc1cc(-c2cnc3cc(-c4ccc(N5CCOCC5)nn4)ccn23)cc(OC(F)F)c1C(=O)NC1CC1` [compound 286, N-cyclopropyl-2-(difluoromethoxy)-6-methoxy-4-[7-(6-morpholino-pyridazin-3-yl)imidazo[1,2-a]pyridin-3-yl]benzamide], the IC50 against SIK3 [1], on SIK2 [2] and on SIK1 [3] was 0.01 to 10 nM in each case.
`COc1cc(-c2cnc3cc(-c4ccc(C)nn4)ccn23)cc(OC)c1C(=O)NCC(F)(F)F` [compound 269, 2,6-dimethoxy-4-[7-(6-methylpyridazin-3-yl)imidazo[1,2-a]pyridin-3-yl]-N-(2,2,2-trifluoroethyl)benzamide]: the 50% inhibitory concentration (IC50) lay in the range of 0.01 to 10 nM against SIK3 [1], 0.01 to 10 nM on SIK2 [2] and 10 to 100 nM on SIK1 [3].
Take `COc1cc(-c2cnc3cc(-c4cnn(C)c4)c(OC(C)C#N)cn23)cc(OC(F)F)c1C(=O)NC1CC1` (stereo not drawn) [Cpd 301, 4-[6-(1-cyanoethoxy)-7-(1-methylpyrazol-4-yl)imidazo[1,2-a]pyridin-3-yl]-N-cyclopropyl-2-(difluoromethoxy)-6-methoxy-benzamide]: the IC50 at SIK3 [1], against SIK2 [2] and against SIK1 [3] was 0.01 to 10 nM throughout.
